The molecules below were run against T1, Membrane-associated tyrosine- and threonine-specific cdc2-inhibitory kinase (Homo sapiens, UniProt Q99640) (assay: Test for Binding to ATP Binding Site of MYT1).
T1 sequence (Q99640 whole entry): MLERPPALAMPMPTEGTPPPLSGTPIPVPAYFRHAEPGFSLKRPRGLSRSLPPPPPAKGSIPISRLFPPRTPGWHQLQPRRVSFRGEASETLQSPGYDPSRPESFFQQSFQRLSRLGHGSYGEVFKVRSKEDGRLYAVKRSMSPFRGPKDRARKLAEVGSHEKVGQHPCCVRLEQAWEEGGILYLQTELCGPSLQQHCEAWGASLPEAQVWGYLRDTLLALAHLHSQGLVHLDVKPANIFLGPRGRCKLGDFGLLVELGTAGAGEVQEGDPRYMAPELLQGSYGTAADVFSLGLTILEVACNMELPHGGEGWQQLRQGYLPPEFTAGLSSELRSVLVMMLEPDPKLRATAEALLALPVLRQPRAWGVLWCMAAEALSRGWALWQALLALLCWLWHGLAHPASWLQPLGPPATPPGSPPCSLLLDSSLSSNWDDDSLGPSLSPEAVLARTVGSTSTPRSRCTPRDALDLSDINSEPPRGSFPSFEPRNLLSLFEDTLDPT
Protocol: Table 3-1 to 3-5: The binding capacity of each compound to the ATP binding site of MYT1 Kinase protein was evaluated. 5× Kinase Buffer A (manufactured by Thermo Fisher Scientific Inc., PV3189) was diluted to 5 times with Milli-Q water, thereby preparing 1× Kinase Buffer. Using 1× Kinase Buffer, MYT1 protein (manufactured by Carna Biosciences, Inc.) was diluted to a concentration of 0.005 μM and Eu-Anti-GST Antibody was diluted to a concentration of 1 μM. […] To a 96 well-plate, 2.5 μL of a compound diluted with DMSO was added. […] The mixture was well mixed and then allowed to stand at room temperature for 30 minutes. Thereafter, fluorescence wavelengths of 665 nm and 615 nm generated by irradiation with excitation light of 340 nm were detected using Envision (manufactured by PerkinElmer). The proportion of Tracer bound to MYT1 protein was calculated for every condition by dividing the intensity at the fluorescence wavelength of 665 nm by the intensity at the fluorescence wavelength of 615 nm.

| SMILES | IC50 [nM] |
| --- | --- |
| N#C[C@H]1C[C@@H](Oc2cc3c(-c4cc(F)c(F)c5[nH]ncc45)c(N)c(=O)[nH]c3c3cccnc23)C1 [US20260062412, Compound C212] | 1.2 |
| Nc1c(-c2cc(F)c(F)c3[nH]ncc23)c2cc(O[C@H]3C[C@@H](F)C3)c3ncccc3c2[nH]c1=O [US20260062412, Compound C213] | 0.83 |
| CC[C@@H](C)Oc1cc2c(c3cccnc13)NC(=O)C(N)C2c1ccc(F)c2[nH]ncc12 (stereo partly drawn) [US20260062412, Compound C36] | 4.2 |

— BindingDB's records for patent US20260062412 (Chugai Seiyaku Kabushiki Kaisha, 2026)
